Tested on: silver scurf (Helminthosporium solani)
Test: Silver scurf coverage on Roseval potatoes after three months storage
Assay type: in vivo
Conditions: three months storage at 8° C., thermal fogging
Experimental: Roseval potatoes were treated by thermal fogging with mint oil at 90 g/tonne, or with 67-72 g/tonne of L-carvone, then three times at 30 g/tonne, or 22.5-24 g/tonne of L-carvone, at 21-day intervals. They were then stored for three months at 8° C. The silver scurf coverage rates were measured on the batches treated with L-carvone and on the controls treated by thermal fogging with CIPC at 200 g/L at a dose of 60 ml/tonne for the first application then at 40 ml/tonne for the subsequent applications.

Compound	Coverage 5-75% (%) Class 4	Coverage 6-25% (%) Class 2	Coverage 26-50% (%) Class 3	Coverage >75% (%) Class 5	Coverage ≦5% (%) Class 1	Silver scurf index (0-100)	Undamaged tubers (%) Class 0
C=C(C)C1CC=C(C)C(=O)C1 [L-carvone, 2-methyl-5-(1-methylethenyl)-2-cyclohexen-1-one]	0.0%	0.0 b %	0.0 b %	0.0%	28.5%	0.8 b	71.5 a %
CC(C)OC(=O)Nc1cccc(Cl)c1 [Thermo reference]	0.7%	7.7 a %	3.9 a %	1.5%	26.2%	5.7 a	60.2 b %
